Measured values taken from patent US10189862B2, “Phenothiazine-pyridine compounds and uses thereof” (The Chinese University of Hong Kong, priority 2016, dated 2019).
pIC50: −log10 of the molar value. Read-outs that look alike come from different tables or passages of the source.

Assays:
HT29 cell line [1] = test: Photocytotoxicity (PDT), MTT assay; format: cell-based; conditions: Homo sapiens, HT-29, light or radiation study; HT29; 1 h incubation, 630 nm LED light 30 s, 3.2 J/cm^2, 24 h, MTT; read-out: IC50 PDT
Experimental: (§1) Cell lines and culture conditions: A549, HT29, MCF-7, MDA-MB-231 cell lines were maintained in RPMI1640 supplemented with fetal bovine serum (10%) and penicillin-streptomycin solution (1%), and WI38 cells were maintained in DMEM supplemented with fetal bovine serum (10%) and penicillin-streptomycin solution (1%). Approximately 1×10^4 (for A549, HT29, MCF-7, MDA-MB-231) or 1.5×10^4 (for WI38) cells per well were seeded in 96-well plate and incubated overnight light at 37° C. in a humidified atmosphere with 5% CO2.
Photocytotoxicity: Cells were incubated with different concentrations of photosensitive drug for 1 h in the dark, then the medium in the well was sucked by a syringe, and washed by PBS. Then a solution of new medium was added, and illuminated by light. After irradiation, the cells were incubated under dark at 37° C. for another 24 h, and the cell viabilities were determined by MTT assay.

HT29 cell line [2] = test: Dark toxicity, MTT assay; format: cell-based; conditions: Homo sapiens, HT-29; HT29; 24 h under dark, MTT; read-out: IC50 DK
Experimental: as §1
Dark toxicity: Cells were incubated with different concentrations of photosensitive drug for 24 h in dark, and the cell viabilities were determined by MTT assay

HT29 cells = test: Intracellular ROS generation, DCFH-DA probe, flow cytometry; format: cell-based; conditions: HT29, 0.5 uM, light irradiation; order 14≈23>8>18>15>24>>16>20>17≈19≈22>21>>MB
Description: In order to further mimic the biological environment, we measured the intracellular reactive oxygen species (ROS) generation efficiency of these phenothiazine-pyridine compounds by flow cytometry. We employed HT29 cell line as cell model, and 2,7-dichlorofluorescin diacetate (DCFH-DA) as the intracellular ROS indicator, to determine the fluorescence intensity of 2,7-dichlorofluorescin (DCF), which was oxidized from DCFH-DA by ROS. The experiments were repeated for three times using DCFH-DA as control. For comparison, methylene blue was used as positive control. The data were analyzed by GraphPad Prism 6, the drug concentrations are all at 0.5 uM. […] In addition, the intracellular ROS generation efficiency is different from that measured in organic solvent, which may be attributed to the different cellular uptake amount for various compounds and the generation of some other ROS species other than ^1O2 in cells ([…] mechanism).

HT29 cell line [3] = conditions: 664 laser and 3 J/cm^2 light dose (2008); read-out: IC50 PDT, Stanley B. Brown reported value; cited from earlier work
E. coli = conditions: 10 uM, 30 min incubation, 24 J/cm^2; cited from earlier work
bacteria = conditions: concentration of 10 uM; cited from earlier work
S. aureus = conditions: 10 uM, 30 min drug-incubation, 60 J/cm^2; cited from earlier work

SMILES | pIC50 (HT29 cell line [1]) | pIC50 (HT29 cell line [2]) | intracellular ROS generation efficiency (HT29 cells) | pIC50 (HT29 cell line [3]) | log 10-reduction (E. coli) | dark toxicity (bacteria) | log 10-reduction (S. aureus)
CN(C)c1ccc2nc3ccc(=[N+](C)C)cc-3sc2c1 [MB, methylene blue] | 5.04 | < 5.00 | almost no ROS generation | 4.05 | 0.5 log 10-reduction | obvious dark toxicity | 
CCCCN(CCCC)c1ccc2nc3ccc(=[N+](CCCC)CCCC)cc-3sc2c1.[Br-] [PPA904] |  |  |  |  | 3 log 10-reduction | obvious dark toxicity | 4 log 10-reduction
